Results on five molecules are retold here after patent EP4664463A1, “COMPUTER-IMPLEMENTED METHOD FOR OLFACTORY PROPERTY PREDICTION” (Givaudan SA, priority 2024, dated 2025).

Like-named read-outs stand apart in the source and are kept apart here.

For series [1], the system named is OR5A2. In words: Dose-dependent luciferase induction by muscone of OR5A2 C-terminal variants. It counts as cell-based, human. The conditions noted are these: modified OR5A2. An excerpt: (§1) To create an expression plasmid, an OR coding sequence fused at the end of TM7 to the desired C-terminus sequence was synthesized by a DNA synthesis service provider (BioCat GmbH, Germany) and inserted into pcDNA3.1(+) (Invitrogen, MA, USA) downstream of the CMV promoter sequence (SEQ ID NO: 82) using BamHI and Notl restriction sites. All the synthetic OR nucleotide sequences described below in Examples 1-15 further contained at their N-terminus a nucleotide sequence encoding a signal peptide (mmLucy-FLAG-rho, SeQ ID NOs: 80, 81) and at the C-terminus the bgh terminator sequence (SEQ ID NO: 83). All the OR expression plasmids also contain a Kozak sequence (GCCACC) between the BamHI restriction site and the start codon of the signal peptide. These plasmids thus contain a constitutively expressed OR gene.
Table 11. Dose-dependent induction OR5A2 with two different variants of the C-terminal sequence motif (Shown is fold-induction of luciferase)

A further series concerns the target T1, OR5AN1 (Homo sapiens, UniProt Q8NGI8).
T1 construct: expressed in transfected cells; host or cells: HEK293T stably expressing human RTP1S(V227I) and RTP2(L220R)
In words: Chimeric OR5AN1 with C-terminal sequence of OR1N2 (luciferase). It is filed as cell-based. From the text:
Similarly, the C-terminal sequence of OR5AN1 was replaced with the C-terminal sequence of the ambrettolide receptor OR1 N2.

Series [2] relates to library of all class II OR with modified C-terminal domain RNKEVKKAIKRLFKRKCCRRR (SEQ ID NO: 221). In words: Screening of the library of all class II OR with single odorants (luciferase). It counts as cell-based, human. The conditions noted are these: full class II OR library (n = 408); maximal non-cytotoxic concentration. The method, then: All human class II OR and all key genetic variants of these OR were synthesized with a sequence coding for an identical modified C-terminal domain […] (SEQ ID NO: 221) in the vector pcDNA3.1(+) to generate a library of all class II OR with an improved C-terminal domain. Class II OR library members with modified C-terminal domains
Parallel transfection experiments were conducted with all these plasmids (n = 408) and cells expressing the different OR were stimulated with one given ligand at a time, tested at the maximal, clearly non-cytotoxic concentration. In total 26 different ligands were tested on the full library of class II receptors.

Series [3] has as its target T2, OR5A2 (Homo sapiens, UniProt Q8NGI9).
T2 construct: expressed in transfected cells; host or cells: HEK293T cells with stably integrated human RTP1S (V227I) and RTP2 (L220R)
T2 sequence (Q8NGI9 with tags, fused parts or gaps): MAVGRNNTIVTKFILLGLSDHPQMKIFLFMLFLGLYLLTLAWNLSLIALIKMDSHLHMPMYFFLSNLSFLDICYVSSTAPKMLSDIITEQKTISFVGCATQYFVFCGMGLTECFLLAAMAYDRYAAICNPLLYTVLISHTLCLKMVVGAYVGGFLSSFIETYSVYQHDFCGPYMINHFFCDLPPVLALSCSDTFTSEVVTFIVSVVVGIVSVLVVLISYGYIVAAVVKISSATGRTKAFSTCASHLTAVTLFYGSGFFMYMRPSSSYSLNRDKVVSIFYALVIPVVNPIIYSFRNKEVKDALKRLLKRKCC
The experiment in a line: Luciferase dose-response, wild-type vs changed C-terminus (SEQ ID NO: 86). The conditions noted are these: OR5A2 with SEQ ID NO: 86. It is filed as cell-based.

Series [4] deals with T3, OR5A2 (Homo sapiens, UniProt Q8NGI9).
T3 construct: expressed in transfected cells; host or cells: HEK293T cells with stably integrated human RTP1S (V227I) and RTP2 (L220R)
T3 sequence (Q8NGI9 1-324): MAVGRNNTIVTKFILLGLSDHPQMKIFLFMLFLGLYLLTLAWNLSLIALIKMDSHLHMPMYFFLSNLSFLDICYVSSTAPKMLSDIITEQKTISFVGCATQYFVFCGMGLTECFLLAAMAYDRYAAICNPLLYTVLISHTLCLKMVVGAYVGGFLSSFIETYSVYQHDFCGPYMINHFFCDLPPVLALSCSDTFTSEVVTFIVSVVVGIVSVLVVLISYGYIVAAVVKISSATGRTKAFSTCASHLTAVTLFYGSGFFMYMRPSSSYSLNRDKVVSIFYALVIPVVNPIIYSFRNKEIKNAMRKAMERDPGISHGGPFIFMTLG
The description is as above. It is filed as cell-based. Particulars: wild-type OR5A2.

Series [5] has as its system OR4S2. The experiment in a line: cell-based. It counts as cell-based, human.
Excerpt: as §1

Series [6] has as its target T4, OR4S2 (Homo sapiens, UniProt Q8NH73).
T4 construct: expressed in transfected cells; host or cells: HEK293T stably expressing human RTP1S(V227I) and RTP2(L220R)
The experiment in a line: cell-based. It counts as cell-based.
Excerpt: as §1

Series [7] has as its target T5, OR4S2 (Homo sapiens, UniProt Q8NH73, A290K).
T5 construct: expressed in transfected cells; host or cells: HEK293T stably expressing human RTP1S(V227I) and RTP2(L220R)
The experiment in a line: cell-based. It counts as cell-based.
Excerpt: as §1

In series [8] the target is T6, OR2T4 (Homo sapiens, UniProt Q8NH00).
T6 construct: expressed in transfected cells; host or cells: HEK293T cells stably expressing human RTP1S (V227I) and RTP2 (L220R)
T6 sequence (Q8NH00 35-348): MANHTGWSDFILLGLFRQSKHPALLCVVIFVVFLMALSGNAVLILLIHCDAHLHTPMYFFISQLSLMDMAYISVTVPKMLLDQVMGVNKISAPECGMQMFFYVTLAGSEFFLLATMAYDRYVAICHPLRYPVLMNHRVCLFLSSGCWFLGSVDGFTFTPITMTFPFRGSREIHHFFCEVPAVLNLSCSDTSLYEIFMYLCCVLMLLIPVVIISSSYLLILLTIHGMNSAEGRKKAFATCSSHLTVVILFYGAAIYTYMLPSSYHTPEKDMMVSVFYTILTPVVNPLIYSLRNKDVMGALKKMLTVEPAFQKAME
In words: cell-based. It counts as cell-based.
Excerpt: as §1

Series [9] concerns OR2T4. In words: cell-based. It is filed as cell-based, human.
Excerpt: as §1

Series [10] concerns the target T7, OR2T4 (Homo sapiens, UniProt Q8NH00, D328E/G331D/M330K).
T7 construct: expressed in transfected cells; host or cells: HEK293T cells stably expressing human RTP1S (V227I) and RTP2 (L220R)
T7 sequence (Q8NH00 with tags, fused parts or gaps D328E/M330K/G331D): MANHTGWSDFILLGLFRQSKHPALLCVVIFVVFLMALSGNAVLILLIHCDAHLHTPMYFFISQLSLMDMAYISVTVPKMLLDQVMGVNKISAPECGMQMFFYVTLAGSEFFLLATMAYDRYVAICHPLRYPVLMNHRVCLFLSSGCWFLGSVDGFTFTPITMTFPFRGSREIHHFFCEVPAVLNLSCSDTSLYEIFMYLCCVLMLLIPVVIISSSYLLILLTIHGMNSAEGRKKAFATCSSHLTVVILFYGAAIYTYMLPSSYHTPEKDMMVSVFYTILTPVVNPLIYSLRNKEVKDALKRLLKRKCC
The experiment in a line: cell-based. It counts as cell-based.
Excerpt: as §1

Series [11] addresses T8, OR1C1 (Homo sapiens, UniProt Q15619).
T8 construct: expressed in transfected cells; host or cells: HEK293T cells stably expressing human RTP1S (V227I) and RTP2 (L220R)
In words: cell-based. It is filed as cell-based.
Excerpt: as §1
T8 sequence (Q15619 whole entry): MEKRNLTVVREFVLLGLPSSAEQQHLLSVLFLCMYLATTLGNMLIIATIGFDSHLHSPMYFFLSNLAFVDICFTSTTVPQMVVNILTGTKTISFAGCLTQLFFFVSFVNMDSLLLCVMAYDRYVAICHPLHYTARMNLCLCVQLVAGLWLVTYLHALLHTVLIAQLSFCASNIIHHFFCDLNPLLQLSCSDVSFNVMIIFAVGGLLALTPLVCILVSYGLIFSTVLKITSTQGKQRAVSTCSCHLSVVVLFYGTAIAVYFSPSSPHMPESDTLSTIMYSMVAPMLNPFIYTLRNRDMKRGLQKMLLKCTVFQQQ

Series [12] has as its system OR1C1. The experiment in a line: cell-based. It is filed as cell-based, human.
Excerpt: as §1

The target of series [13] is T9, OR1C1 (Homo sapiens, UniProt Q15619).
T9 construct: expressed in transfected cells; host or cells: HEK293T cells stably expressing human RTP1S (V227I) and RTP2 (L220R)
The experiment in a line: cell-based. It is filed as cell-based.
Excerpt: as §1
T9 sequence (Q15619 with tags, fused parts or gaps): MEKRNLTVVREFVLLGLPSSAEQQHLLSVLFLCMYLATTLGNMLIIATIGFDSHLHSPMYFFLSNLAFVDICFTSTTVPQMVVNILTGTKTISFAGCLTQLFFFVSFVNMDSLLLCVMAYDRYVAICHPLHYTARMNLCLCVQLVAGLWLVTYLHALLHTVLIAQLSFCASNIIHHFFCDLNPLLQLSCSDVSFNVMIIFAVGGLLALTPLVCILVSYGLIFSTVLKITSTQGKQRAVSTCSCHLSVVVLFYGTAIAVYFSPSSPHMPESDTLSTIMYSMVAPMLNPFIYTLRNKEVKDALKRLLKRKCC
This is another data set of the same source.

The mark [14] stands for this setting: wild-type, read-out: Potency EC50.
Setting [15] is: changed C-term SEQ ID NO: 86, read-out: Potency EC50.

T5 sequence (Q8NH73 with tags, fused parts or gaps A290K): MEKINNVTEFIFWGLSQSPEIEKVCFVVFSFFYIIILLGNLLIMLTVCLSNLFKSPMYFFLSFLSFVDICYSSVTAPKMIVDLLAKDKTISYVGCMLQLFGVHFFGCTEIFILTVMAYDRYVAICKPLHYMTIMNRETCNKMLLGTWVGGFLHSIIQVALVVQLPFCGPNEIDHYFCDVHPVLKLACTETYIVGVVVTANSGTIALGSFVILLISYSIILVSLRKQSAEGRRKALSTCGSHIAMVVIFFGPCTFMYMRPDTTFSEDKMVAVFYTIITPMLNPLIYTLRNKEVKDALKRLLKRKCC
T1 sequence (Q8NGI8 with tags, fused parts or gaps limits assumed): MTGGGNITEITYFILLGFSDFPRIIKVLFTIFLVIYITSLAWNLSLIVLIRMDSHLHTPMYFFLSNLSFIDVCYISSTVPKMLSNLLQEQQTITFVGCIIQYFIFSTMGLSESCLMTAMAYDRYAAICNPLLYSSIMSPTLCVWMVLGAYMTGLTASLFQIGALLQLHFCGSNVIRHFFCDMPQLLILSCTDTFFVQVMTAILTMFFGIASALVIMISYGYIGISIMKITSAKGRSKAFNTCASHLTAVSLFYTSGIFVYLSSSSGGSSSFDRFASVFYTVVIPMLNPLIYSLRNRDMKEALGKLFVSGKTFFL

For `C[C@@H]1CCCCCCCCCCCCC(=O)C1` [Muscone], in the series on OR5A2 [1], the “concentration at which induction starts” value stood at 0.03 µM. The functional response result at OR5AN1 is “not showing any functional response”. Besides, the “Activated OR and OR variants” value in [2] is “OR5AN1, OR5A2”. In addition, the “concentration at which activation occurs” value at OR5A2 [3] was 1 µM. Also, at OR5A2 [4], the “activation of the wild-type receptor” value is on record as “No activation”.
Consider `O=C(OCc1ccccc1)c1ccccc1O` [Benzyl salicylate], for which the “Activated OR and OR variants” value in series [2] was “OR2AG2(Y28C)”.
In the case of `c1ccc2scnc2c1` [Benzothiazole], in the series on OR4S2 [5], the Comments on efficacy is given as 2-fold lower maximal induction for wild-type. In the series with OR4S2 [5], this molecule showed a Fold-improvement potency of 1.3. In the series on OR4S2 [5], this molecule returned a Fold-improvement threshold of 2.4. Also, the “Detection threshold; concentration for 2-fold induction” value on OR4S2 [6] is given as 29.4 µM; at OR4S2 [7], 12.5 µM. In addition, the EC50 (usually the concentration that produces a half-maximal response) on OR4S2 [6] (setting [14]) came out at 137 µM; on OR4S2 [7] (setting [15]) it was 104 µM.
Take `SC1CCCC1` [Cyclopentanethiol]: the “Detection threshold; concentration for 2-fold induction” value on OR2T4 [8] is on record as “n.i. (>> 316) µM”; on OR2T4 [10] it was 3.89 µM. Also, the figures for the EC50 on OR2T4 [8] (setting [14]) and at OR2T4 [10] (setting [15]) were above 316 µM and 14.6 µM, respectively. Further, the Comments on efficacy entry in the series on OR2T4 [9] is given as “No induction wild-type”. In addition, in the series on OR2T4 [9], the Fold-improvement potency is on record as >>2. Also, the Fold-improvement threshold in the series with OR2T4 [9] is >>100. Further, the “ligands identified in screening of sulfur odorants” value on OR2T4 [10] (OR2T4 with SEQ ID NO: 86) was “good ligands”.
For the molecule `C=CC(C)(O)CCC=C(C)C` (stereo not drawn) [Linalool], the “Detection threshold; concentration for 2-fold induction” value on OR1C1 [11] is given as 34.7 µM; on OR1C1 [13] it was 16.2 µM. Besides, the results for the EC50 on OR1C1 [11] (setting [14]) and at OR1C1 [13] (setting [15]) were 379 µM and 202 µM, respectively. The molecule also yielded a Fold-improvement potency with OR1C1 [12] of 1.9. The molecule further displayed a Fold-improvement threshold in the series on OR1C1 [12] of 2.1.
